In patent publication US20190353647A1, “NOVEL REAL-TIME MULTIPLEXED, MULTI-COLOR BIOLUMINESCENCE RESONANCE ENERGY TRANSFER ASSAY, APPARATUS, AND USES THEREOF” (Universite de Bordeaux, priority 2016, published 2019):

What was measured:
Format in all cases: cell-based
TRPV1 = molecular target: T1, TRPV1 (Homo sapiens, UniProt Q8NER1); assay: Three-color spectral BRET, TRPV1-Luc/mAmetrine-CaM component in mixed HEK293T cells; conditions: 20 μM CAPS injected at 75 seconds, real time, mixed cell population
T1 construct: expressed in transfected cells; host or cells: HEK293T
T1 sequence (Q8NER1 whole entry): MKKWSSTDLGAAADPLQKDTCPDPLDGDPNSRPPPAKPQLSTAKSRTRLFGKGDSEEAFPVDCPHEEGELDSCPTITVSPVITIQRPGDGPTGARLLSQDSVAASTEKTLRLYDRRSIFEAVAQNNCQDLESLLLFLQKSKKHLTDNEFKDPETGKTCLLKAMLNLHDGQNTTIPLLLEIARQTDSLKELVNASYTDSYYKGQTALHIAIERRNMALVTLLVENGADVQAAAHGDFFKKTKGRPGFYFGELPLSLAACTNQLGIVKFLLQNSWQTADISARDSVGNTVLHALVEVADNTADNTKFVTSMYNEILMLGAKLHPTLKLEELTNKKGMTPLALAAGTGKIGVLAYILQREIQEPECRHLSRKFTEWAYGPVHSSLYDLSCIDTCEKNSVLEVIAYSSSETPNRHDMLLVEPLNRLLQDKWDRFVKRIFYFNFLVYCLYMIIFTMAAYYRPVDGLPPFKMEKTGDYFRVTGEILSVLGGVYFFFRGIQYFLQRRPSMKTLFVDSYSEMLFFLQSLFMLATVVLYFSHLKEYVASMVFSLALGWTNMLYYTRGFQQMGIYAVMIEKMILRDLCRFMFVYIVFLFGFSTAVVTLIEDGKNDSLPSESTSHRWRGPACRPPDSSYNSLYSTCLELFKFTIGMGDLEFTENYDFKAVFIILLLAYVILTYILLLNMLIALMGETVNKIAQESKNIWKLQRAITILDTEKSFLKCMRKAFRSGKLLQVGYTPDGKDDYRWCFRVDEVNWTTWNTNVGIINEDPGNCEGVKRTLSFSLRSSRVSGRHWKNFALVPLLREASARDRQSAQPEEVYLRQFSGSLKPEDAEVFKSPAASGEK
Source text: Using the LabView programming language (National Instruments, Austin, Tex., USA), an interface was developed to run the acquisition of the bioluminescent spectra and perform real-time spectral decomposition of the BRET signal into its various components. The experimental emission spectra of Luc, YFP, mAmetrine, aquamarine, and Lss-mOrange were first obtained experimentally using a Cary Eclipse Fluorimeter (Agilent Technology, Santa Clara, Calif., USA) (FIG. 3). Each spectrum was then fitted as a sum of Gaussian curves based on Eq.3.: […]

TRPV3 = molecular target: T2, TRPV3 (Homo sapiens, UniProt Q8NET8); assay: Three-color spectral BRET, Luc-TRPV3/aquamarine-CaM component in mixed HEK293T cells; design: expressed in transfected cells; host or cells: HEK293T (mixed with two other transfected populations); conditions: one mM Drofenine injected at 75 seconds, real time, mixed cell population
T2 sequence (Q8NET8 1-790): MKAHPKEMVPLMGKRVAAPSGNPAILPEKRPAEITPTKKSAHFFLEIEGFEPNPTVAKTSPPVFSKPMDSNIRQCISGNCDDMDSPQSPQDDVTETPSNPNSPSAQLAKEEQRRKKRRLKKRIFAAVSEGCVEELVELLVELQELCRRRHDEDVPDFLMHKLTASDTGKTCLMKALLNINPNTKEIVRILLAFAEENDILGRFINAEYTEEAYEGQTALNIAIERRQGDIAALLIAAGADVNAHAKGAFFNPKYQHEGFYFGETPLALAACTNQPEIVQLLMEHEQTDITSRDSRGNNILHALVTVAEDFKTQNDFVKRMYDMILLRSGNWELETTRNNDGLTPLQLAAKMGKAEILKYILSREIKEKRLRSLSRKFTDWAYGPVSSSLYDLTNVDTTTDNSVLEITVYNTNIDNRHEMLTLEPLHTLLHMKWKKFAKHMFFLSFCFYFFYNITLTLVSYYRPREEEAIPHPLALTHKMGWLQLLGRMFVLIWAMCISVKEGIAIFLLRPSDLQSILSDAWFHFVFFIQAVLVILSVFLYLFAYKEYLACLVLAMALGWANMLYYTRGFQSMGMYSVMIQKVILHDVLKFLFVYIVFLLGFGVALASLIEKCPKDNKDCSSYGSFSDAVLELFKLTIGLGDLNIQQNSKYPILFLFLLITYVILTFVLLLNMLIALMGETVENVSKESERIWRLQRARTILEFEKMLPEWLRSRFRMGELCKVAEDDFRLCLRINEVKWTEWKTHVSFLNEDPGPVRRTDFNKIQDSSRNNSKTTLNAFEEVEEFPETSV
Source text: (§1) FIG. 2: Multiplexing measurements of TRPV activity using multicolor BRET. (A) Example of a three-color BRET spectrum and its decomposition, measured in a coculture containing three HEK293T subpopulations transfected with aquamarine-Luc, mAmetrine-Luc, or LSSmOrange-Luc. The grey dots represent the experimental data. Black, light grey, medium grey, and grey solid lines represent the spectral components of Luc, aquamarine, mAmetrine, and LSSmOrange, respectively. […] Results represent the mean of three independent experiments.
(§2) Full BRET spectra were acquired using an optical fiber linked to a Spectra Pro 2300i spectrometer, equipped with a liquid-nitrogen-cooled CCD camera for recording the full visible spectrum (Acton Optics, Acton, Mass., USA). The bioluminescent signal was recorded from transfected cells seeded onto a glass coverslip and placed into a white opaque measurement chamber made of Teflon® and containing an isotonic solution (NaCl 145 mM, KCl 5 mM, KH2PO4 4 mM, CaCl2 1 mM, MgSO4 1 mM, Glucose 10 mM). The temperature of the cell buffer was regulated using an Eppendorf® ThermoStat Plus and measured in real time using a fiber-optic temperature measurement Luxtron 812 system (Lumasense technologies, Santa Clara, Calif., USA). […]

TRPV4 = TRPV4 (Homo sapiens, UniProt Q9HBA0); assay: Three-color spectral BRET, TRPV4-Luc/LSSmOrange-CaM component in mixed HEK293T cells; design: expressed in transfected cells; host or cells: HEK293T (mixed with two other transfected populations); conditions: 100 nM GSK101 injected at 75 seconds, real time, mixed cell population
Sequence of TRPV4 (Q9HBA0 whole entry): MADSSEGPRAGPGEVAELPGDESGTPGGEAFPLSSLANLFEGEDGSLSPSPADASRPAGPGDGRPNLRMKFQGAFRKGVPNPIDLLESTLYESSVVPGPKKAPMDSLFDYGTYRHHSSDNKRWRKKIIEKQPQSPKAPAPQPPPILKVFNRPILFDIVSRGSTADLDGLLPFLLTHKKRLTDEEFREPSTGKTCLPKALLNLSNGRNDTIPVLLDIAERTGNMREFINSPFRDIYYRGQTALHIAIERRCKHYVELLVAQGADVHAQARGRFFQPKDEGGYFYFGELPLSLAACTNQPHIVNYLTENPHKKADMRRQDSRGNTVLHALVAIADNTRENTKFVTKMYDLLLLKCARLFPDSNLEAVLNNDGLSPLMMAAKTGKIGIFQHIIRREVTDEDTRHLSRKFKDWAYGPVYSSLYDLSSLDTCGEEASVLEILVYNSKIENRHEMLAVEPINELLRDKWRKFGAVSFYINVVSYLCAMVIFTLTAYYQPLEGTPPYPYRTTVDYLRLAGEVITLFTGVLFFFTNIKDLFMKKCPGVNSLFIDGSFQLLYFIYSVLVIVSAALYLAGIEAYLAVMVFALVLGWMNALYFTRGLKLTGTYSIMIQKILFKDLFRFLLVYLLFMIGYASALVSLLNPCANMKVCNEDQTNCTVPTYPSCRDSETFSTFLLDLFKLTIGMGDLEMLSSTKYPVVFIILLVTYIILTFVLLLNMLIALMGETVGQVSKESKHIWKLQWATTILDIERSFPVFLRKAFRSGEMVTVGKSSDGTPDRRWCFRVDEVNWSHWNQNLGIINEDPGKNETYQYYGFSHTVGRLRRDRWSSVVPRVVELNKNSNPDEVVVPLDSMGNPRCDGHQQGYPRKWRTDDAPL
Source text: as §1, §2

## COc1cc(CNC(=O)CCCC/C=C/C(C)C)ccc1O [CAPS, Capsaicin]
TRPV1
  TRPV1 BRET signal in three-color assay: time-dependent increase

## CCN(CC)CCOC(=O)C(c1ccccc1)C1CCCCC1 (stereo not drawn) [Drofenine]
TRPV3
  TRPV3-related BRET component in three-color assay: increase in only the TRPV3-related BRET component

## CC(C)C[C@H](NC(=O)c1cc2ccccc2s1)C(=O)N1CCN(C(=O)[C@H](CO)NS(=O)(=O)c2ccc(Cl)cc2Cl)CC1 [GSK1016790A]
TRPV4
  TRPV4 BRET signal in three-color assay: time-dependent increase
